Experimental data reported in patent US8022228B2, “Crystal form of asenapine maleate” (N.V. Organon, priority 2005, dated 2011).
Structures can show the parent of a compound that is named as a salt. One block for each compound: values may come before it.

Legend:
[1] = Particle size distribution by laser diffraction (LDS method); assay type: physicochemical; details: for D95 of micronization sample: after micronization, Chrispro MC200 jet mill, nitrogen, 7 bar; for D95 of crystallization sample: LDS
Experimental: LDS method. A dispersion liquid has been made consisting of (0.7 mg/ml) lecithin (used as a surfactant) in iso-octane saturated with asenapine maleate. The solution is stirred overnight. Subsequently the solution is filtered over a 0.22 μm filter. The samples were prepared by weighing approximately 30 mg asenapine maleate in a centrifugal tube and adding 2 ml of the dispersion liquid. Ultrasonic treatment of the samples was performed for 2 minutes in an ultrasonic bath (Transsonic 310). Subsequently, the particle size distribution of the sample was analyzed using laser diffraction (Malvern Mastersizer S, UK). The particle size distribution has been calculated using the Fraunhofer algorithm.

[2] = Micronization in jet mill, polymorphic form of the product by XRPD; assay type: physicochemical; details: polymorphic form after micronization at 7 bar
Experimental: X-ray powder diffraction (XRPD) spectra were obtained on an […] Panalytical Reflection diffractometer in a Bragg-Brantano setup, Cu-Kα radiation, settings 45 kV and 40 mA together with an X'celerator detector. The slits used: anti-scatter slit 1°, divergence slit 1⁄2°, soller slits 0.02 rad. Measuring conditions: scan range 5-40°2-[…] (θ), step size 0.0167°2-[…]. The samples were measured on a rotating sample disk of Si with a speed of 15 rpm.

[3] = known crystalline form, Funke et al.; cited from earlier work
[4] = Particle size observed in micrographs / microscopic picture; assay type: physicochemical; details: non-micronized crystallized batch

Structure (SMILES): CN1CC2c3ccccc3Oc3ccc(Cl)cc3C2C1.O=C(O)/C=C\C(=O)O (centres unmarked) [asenapine maleate]
size of crystalline particles as observed in micrographs [3]: over 100 μm

Structure (SMILES): CN1CC2c3ccccc3Oc3ccc(Cl)cc3C2C1 (centres unmarked) [batch C2, asenapine maleate]
D95 of crystallization sample ([1]; non-micronized crystallized batch, listed as C2): 221 μm

Structure (SMILES): CN1CC2c3ccccc3Oc3ccc(Cl)cc3C2C1 (centres unmarked) [batch C5, asenapine maleate]
average particle size by LDS ([1]; non-micronized crystallized batch): ~30 μm
D95 of crystallization sample ([1]; non-micronized crystallized batch, listed as C5): 30-100 μm
particle size in microscopic picture [4]: up to 100 μm

Structure (SMILES): CN1CC2c3ccccc3Oc3ccc(Cl)cc3C2C1 (centres unmarked) [batch C1, asenapine maleate]
D95 of crystallization sample ([1]; non-micronized crystallized batch, listed as C1): 199 μm

Further lines, results first:

D95 of micronization sample ([1]; listed as M3): <16 μm
polymorph of micronization sample ([2]; listed as M3): 80% orthorhombic, 20%
Structure (SMILES): CN1CC2c3ccccc3Oc3ccc(Cl)cc3C2C1 (centres unmarked) [batch M3, asenapine maleate]

D95 of micronization sample ([1]; listed as M6): <10 μm
polymorph of micronization sample ([2]; listed as M6): >95% orthorhombic
Structure (SMILES): CN1CC2c3ccccc3Oc3ccc(Cl)cc3C2C1 (centres unmarked) [batch M6, asenapine maleate]

D95 of micronization sample ([1]; listed as M4): <9 μm
polymorph of micronization sample ([2]; listed as M4): >95% orthorhombic
Structure (SMILES): CN1CC2c3ccccc3Oc3ccc(Cl)cc3C2C1 (centres unmarked) [batch M4, asenapine maleate]

D95 of micronization sample ([1]; listed as M7): <12 μm
polymorph of micronization sample ([2]; listed as M7): >95% orthorhombic
Structure (SMILES): CN1CC2c3ccccc3Oc3ccc(Cl)cc3C2C1 (centres unmarked) [batch M7, asenapine maleate]

D95 of micronization sample ([1]; listed as M5): <6 μm
polymorph of micronization sample ([2]; listed as M5): >95% orthorhombic
Structure (SMILES): CN1CC2c3ccccc3Oc3ccc(Cl)cc3C2C1 (centres unmarked) [batch M5, asenapine maleate]

D95 of micronization sample ([1]; listed as M2): <14 μm
polymorph of micronization sample ([2]; listed as M2): >95% monoclinic
Structure (SMILES): CN1CC2c3ccccc3Oc3ccc(Cl)cc3C2C1 (centres unmarked) [batch M2, asenapine maleate]

D95 of micronization sample ([1]; listed as M1): <12 μm
polymorph of micronization sample ([2]; listed as M1): >95% orthorhombic
Structure (SMILES): CN1CC2c3ccccc3Oc3ccc(Cl)cc3C2C1 (centres unmarked) [batch M1, asenapine maleate]
